Values of other authors as cited in patent publication US11192861B2, “Human plasma kallikrein inhibitors” (BioCryst Pharmaceuticals, Inc., priority 2014, dated 2021).

Tested on: hereditary angioedema (HAE)

| Compound | effectiveness in treating HAE (in vivo) | edema in patients with hereditary angioedema (patients with HAE) |
| --- | --- | --- |
| NC(N)=NCCC[C@@H](N)C(=O)N[C@@H](CCCN=C(N)N)C(=O)N1CCC[C@H]1C(=O)N1C[C@H](O)C[C@H]1C(=O)NCC(=O)N[C@@H](Cc1cccs1)C(=O)N[C@@H](CO)C(=O)N1Cc2ccccc2C[C@@H]1C(=O)N1[C@H](C(=O)N[C@@H](CCCN=C(N)N)C(=O)O)C[C@@H]2CCCC[C@@H]21 [Icatibant] | effective in treating HAE |  |
| ecallantide [DX-88] |  | alleviates edema |
